Measured values from ChEMBL document CHEMBL1201862, “PubChem BioAssay data set” (2004).
Active and inactive are the calls of the source.

Experiments:
cells = type: functional
[1] = biological target: T1, Carboxy-terminal domain RNA polymerase II polypeptide A small phosphatase 1 (Homo sapiens, UniProt Q9GZU7); experiment: CTDSP1 inhibitors, concentration-response, biochemical, absorbance readout, ultra-high-throughput screen actives (AID 540297); type: functional
T1 sequence (Q9GZU7 whole entry): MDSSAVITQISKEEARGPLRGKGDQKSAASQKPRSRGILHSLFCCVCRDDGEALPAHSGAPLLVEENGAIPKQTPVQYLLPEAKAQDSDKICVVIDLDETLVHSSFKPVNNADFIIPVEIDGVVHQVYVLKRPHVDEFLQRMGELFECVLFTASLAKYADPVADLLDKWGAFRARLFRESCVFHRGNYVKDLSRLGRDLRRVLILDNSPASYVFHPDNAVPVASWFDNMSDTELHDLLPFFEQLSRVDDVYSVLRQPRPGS

[2] = viability of PTEN-deleted HCT116 cells – cell-based, HCT116 PTEN knockout, dose response (AID 1047); type: functional;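 further: HCT116 colon tumor cells with PTEN knocked out; cells exposed to compound for 60 hours before readout; potency for loss of cell viability measured by luminescence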
[3] = viability of HCT116 lacking mutant beta-catenin – cell-based, human colon tumor, dose response (AID 1045); type: functional;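 further: HCT116 colon tumor cells with beta catenin knocked out; cells exposed to compound for 60 hours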
[4] = microbe, parasite or virus in culture; type: functional; settings: Mycobacterium tuberculosis
[5] = Luminescence Cell-Based Dose Confirmation HTS to Identify Activators of 5'UTR Stem-Loop Driven Alpha-Synuclein mRNA Translation in H4 Neuroglioblastoma Cells. [Related pubchem assays: 1829 (Project Summary), 1814 (Primary HTS)]; type: functional
[6] = Luminescence Cell-Based Dose Response HTS to Identify Activators of Luciferase Translation or Activity in H4 […] Cells. [Related pubchem assays: 1829 (Project Summary), 1814 (Primary HTS)]; type: functional
H4 = experiment: Luminescence Cell-Based Dose Response HTS to Identify Activators of 5'UTR Stem-Loop Driven Prion Protein mRNA Translation in H4 Neuroglioblastoma Cells. [Related pubchem assays: 1829 (Project Summary), 1814 (Primary HTS)]; type: functional; settings: Homo sapiens
[7] = biological target: FAD-linked sulfhydryl oxidase ALR (Homo sapiens, UniProt P55789); experiment: ALR-catalysed DTT oxidation blockers – biochemical, H2O2 detection, luminescence, cherry-pick, dose response (AID 493248)
FAD-linked sulfhydryl oxidase ALR, sequence (P55789 whole entry): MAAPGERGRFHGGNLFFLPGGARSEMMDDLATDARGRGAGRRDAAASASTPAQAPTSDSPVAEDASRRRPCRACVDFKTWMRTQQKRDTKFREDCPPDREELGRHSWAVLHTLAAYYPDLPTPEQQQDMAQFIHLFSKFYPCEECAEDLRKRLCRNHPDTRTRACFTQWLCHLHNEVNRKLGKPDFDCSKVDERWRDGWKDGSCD

[8] = biological target: Glyceraldehyde-3-phosphate dehydrogenase (Homo sapiens, UniProt P04406)
Glyceraldehyde-3-phosphate dehydrogenase, sequence (P04406 whole entry): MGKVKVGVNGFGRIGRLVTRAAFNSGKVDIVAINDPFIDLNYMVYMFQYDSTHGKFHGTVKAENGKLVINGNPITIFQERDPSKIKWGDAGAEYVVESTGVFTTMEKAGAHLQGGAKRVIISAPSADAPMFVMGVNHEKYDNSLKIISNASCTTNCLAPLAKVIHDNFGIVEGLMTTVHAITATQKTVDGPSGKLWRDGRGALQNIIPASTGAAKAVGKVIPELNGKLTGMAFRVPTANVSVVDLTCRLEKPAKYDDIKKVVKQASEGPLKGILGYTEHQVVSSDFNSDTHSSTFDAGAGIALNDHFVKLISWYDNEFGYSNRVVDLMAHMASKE

[9] = biological target: T2, Replicative DNA helicase DnaB (Mycobacterium tuberculosis, UniProt P9WMR3); experiment: DnaB intein splicing inhibitors, dose response, biochemical, cell-free fluorescence (AID 449749); type: functional
T2 sequence (P9WMR3 whole entry): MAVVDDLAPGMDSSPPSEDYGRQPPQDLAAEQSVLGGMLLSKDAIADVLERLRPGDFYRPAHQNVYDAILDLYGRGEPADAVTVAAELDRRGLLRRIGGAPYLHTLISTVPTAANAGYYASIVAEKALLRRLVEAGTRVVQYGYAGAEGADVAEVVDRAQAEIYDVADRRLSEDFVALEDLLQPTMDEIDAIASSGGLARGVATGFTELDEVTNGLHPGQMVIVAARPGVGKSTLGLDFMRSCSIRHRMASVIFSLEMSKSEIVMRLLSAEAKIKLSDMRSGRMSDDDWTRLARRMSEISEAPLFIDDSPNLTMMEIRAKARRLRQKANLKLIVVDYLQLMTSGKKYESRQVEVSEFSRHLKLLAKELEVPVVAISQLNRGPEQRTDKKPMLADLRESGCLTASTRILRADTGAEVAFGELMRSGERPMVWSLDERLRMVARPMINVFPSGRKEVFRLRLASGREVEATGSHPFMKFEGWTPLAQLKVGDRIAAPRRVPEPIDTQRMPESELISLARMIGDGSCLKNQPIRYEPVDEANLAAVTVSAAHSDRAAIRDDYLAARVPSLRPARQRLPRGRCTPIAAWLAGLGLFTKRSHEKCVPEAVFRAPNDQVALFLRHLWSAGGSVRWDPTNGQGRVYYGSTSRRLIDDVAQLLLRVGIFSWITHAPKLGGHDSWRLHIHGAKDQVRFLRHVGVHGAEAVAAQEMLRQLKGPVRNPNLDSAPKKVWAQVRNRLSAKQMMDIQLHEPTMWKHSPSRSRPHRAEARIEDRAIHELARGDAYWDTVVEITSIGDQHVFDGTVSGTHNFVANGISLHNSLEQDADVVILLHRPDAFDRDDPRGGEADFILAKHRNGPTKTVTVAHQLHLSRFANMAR

Protein RecA = biological target: T3, Protein RecA (Mycobacterium tuberculosis, UniProt P9WHJ3); experiment: Fluorescence Cell-Free Homogeneous Dose Retest to Identify Inhibitors of RecA-Intein Splicing Activity. [Related pubchem assays (depositor defined):AID2097, AID2223, AID489010, AID492950]; type: functional
T3 sequence (P9WHJ3 whole entry): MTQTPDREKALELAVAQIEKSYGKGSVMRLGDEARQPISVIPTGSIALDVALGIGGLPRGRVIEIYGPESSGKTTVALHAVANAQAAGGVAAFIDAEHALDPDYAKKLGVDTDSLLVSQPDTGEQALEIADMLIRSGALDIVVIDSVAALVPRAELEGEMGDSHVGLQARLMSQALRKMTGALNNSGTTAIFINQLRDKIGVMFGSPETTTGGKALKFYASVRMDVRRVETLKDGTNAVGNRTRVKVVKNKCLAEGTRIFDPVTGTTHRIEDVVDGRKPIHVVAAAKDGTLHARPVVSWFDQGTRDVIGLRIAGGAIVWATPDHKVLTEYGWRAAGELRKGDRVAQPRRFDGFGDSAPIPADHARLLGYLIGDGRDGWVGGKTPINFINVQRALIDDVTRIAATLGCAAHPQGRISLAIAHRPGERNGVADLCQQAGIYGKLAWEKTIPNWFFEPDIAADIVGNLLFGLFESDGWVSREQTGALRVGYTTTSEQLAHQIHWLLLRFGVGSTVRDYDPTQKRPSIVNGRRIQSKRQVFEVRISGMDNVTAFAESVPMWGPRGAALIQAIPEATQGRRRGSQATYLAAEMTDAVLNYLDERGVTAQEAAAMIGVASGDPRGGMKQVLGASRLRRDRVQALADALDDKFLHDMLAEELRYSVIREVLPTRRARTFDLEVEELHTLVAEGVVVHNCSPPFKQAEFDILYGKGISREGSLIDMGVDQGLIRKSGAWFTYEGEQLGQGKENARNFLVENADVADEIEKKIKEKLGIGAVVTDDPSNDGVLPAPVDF

Cytochrome P450 1A2 = biological target: T4, Cytochrome P450 1A2 (Homo sapiens, UniProt P05177);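 further: PubChem cytochrome P450 panel assay, CYP1A2 panel member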
T4 sequence (P05177 whole entry): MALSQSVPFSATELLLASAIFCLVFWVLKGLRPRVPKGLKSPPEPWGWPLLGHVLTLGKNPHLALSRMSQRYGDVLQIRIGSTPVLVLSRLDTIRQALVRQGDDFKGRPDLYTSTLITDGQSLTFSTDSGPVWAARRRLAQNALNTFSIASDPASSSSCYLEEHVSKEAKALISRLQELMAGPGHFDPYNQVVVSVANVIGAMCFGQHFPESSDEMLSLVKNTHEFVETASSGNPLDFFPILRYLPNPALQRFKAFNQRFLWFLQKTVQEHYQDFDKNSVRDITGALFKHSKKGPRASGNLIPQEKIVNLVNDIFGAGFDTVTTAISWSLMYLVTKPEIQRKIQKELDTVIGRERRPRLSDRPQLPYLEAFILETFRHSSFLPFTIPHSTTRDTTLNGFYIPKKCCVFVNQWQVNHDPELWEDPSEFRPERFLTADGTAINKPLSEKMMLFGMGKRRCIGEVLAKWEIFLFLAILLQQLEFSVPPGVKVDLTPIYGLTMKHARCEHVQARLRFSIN

[10] = biological target: T5, Heat shock factor protein 1 (Mus musculus, UniProt P38532); experiment: enhancement of HSF1-driven luciferase signal – cell-based, NIH3T3, luminescence, dose retest, confirmation (AID 435004); type: functional;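 further: stress induced by proteasome inhibitor MG132 added 30 min after compound; luciferase reporter driven by HSF1 response element in NIH3T3 cells; actives raise luminescence as potentiators of the MG132 stress response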
T5 sequence (P38532 whole entry): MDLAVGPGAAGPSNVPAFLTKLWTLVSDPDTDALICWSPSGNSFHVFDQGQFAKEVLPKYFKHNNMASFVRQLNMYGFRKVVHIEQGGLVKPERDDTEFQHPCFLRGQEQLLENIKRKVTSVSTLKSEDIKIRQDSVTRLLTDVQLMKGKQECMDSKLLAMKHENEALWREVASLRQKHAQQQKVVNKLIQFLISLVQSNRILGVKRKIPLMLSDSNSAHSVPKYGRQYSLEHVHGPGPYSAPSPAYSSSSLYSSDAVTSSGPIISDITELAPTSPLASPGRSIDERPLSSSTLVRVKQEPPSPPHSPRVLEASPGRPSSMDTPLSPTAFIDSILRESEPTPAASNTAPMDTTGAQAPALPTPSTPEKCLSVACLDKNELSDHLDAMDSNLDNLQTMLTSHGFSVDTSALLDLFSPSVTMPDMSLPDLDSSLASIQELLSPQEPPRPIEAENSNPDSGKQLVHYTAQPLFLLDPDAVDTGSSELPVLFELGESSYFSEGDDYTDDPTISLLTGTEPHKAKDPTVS

P388/ADR = experiment: cells; type: functional; settings: Mus musculus
SN12K1 = experiment: cells; type: functional; settings: Homo sapiens
P388 = experiment: cells; type: functional; settings: Mus musculus
[11] = reduction of Shn3 3'UTR-driven luciferase in osteoblasts – cell-based, Clone20 osteoblasts, firefly luciferase, cherry-picked, dose response (AID 624132); type: functional;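 further: firefly luciferase luminescence from reporter carrying the Shn3 3'UTR in osteoblasts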

CC(OC(=O)c1ccc2c(=O)n3c(nc2c1)CCCCC3)C(=O)Nc1ccc(Cl)cn1 (stereo not drawn)
IC50 (cells): 20.3 µM (active)

O=C1Nc2ccc(S(=O)(=O)NCc3ccco3)c3cccc1c23
IC50 [1]: 10.8 µM (active)

O=C1/C(=C/c2c[nH]c3ccccc23)CCC/C1=C\c1c[nH]c2ccccc12
EC50 [2]: 14.4 µM (active) | EC50 [3]: 16.8 µM (active)

O=C1/C(=C\c2ccncc2)CCc2ccccc21
CC50 [4]: > 40 µM (active)

O=c1cc(N2CCN(c3ccc(F)cc3)CC2)[nH]c(=O)n1C1CCCCC1
EC50 [5]: > 120 µM (not active) | EC50 [6]: 17.3 µM (inconclusive) | EC50 (H4): 26.6 µM (active)

COc1ccc(N2C(=O)C(F)(F)C2c2cccc(F)c2)cc1 (stereo not drawn)
IC50 (cells): 5.74 µM (active)

COc1ccc(CCNC(=O)c2cc(-c3cc(C)ccc3O)n[nH]2)cc1OC
AC50 [7]: 85.6 µM (active)

CCOC(=O)C1CCCc2c1[nH]c1c(C(N)=O)cccc21 (stereo not drawn)
IC50 (cells): 5.22 µM (active)

O=C(NNC(=O)c1ccc(-c2ccccc2)cc1)c1ccccc1
IC50 [1]: 11.2 µM (active)

O=C(NNCc1ccc(O)cc1)c1ccccc1Cl
AC50 [7]: 0.695 µM (active)

COc1cccc(NCc2cc(=O)oc3cc(-c4ccccc4)c(O)cc23)c1
EC50 [5]: 21.8 µM (active) | EC50 [6]: 15.2 µM (active) | EC50 (H4): 20 µM (active)

Cc1cc(O)n2cc(-c3ccccc3)nc2n1
AC50 [7]: 13.9 µM (active)

COc1ccc(-c2nc3c(n2O)CCc2c-3no[n+]2[O-])cc1
EC50 [5]: > 120 µM (not active) | EC50 [6]: 22.2 µM (active) | EC50 (H4): 15 µM (active)

O=C1C(Cl)=C(N2CCN(CCOCCO)CC2)C(=O)N1c1ccc(C(F)(F)F)cc1
IC50 [8]: > 50 µM (inconclusive)

O=C1C(Cl)=C(N2CCOCC2)C(=O)N1c1cccc(C(F)(F)F)c1
IC50 [8]: > 50 µM (inconclusive) | AC50 [9]: 1.16 µM (inconclusive) | EC50 (Protein RecA): 1.64 µM (active)

O=C(N/N=C/c1ccc(Cl)cc1)c1cc2c(s1)-c1ccccc1CC2
EC50 [2]: 9.47 µM (active) | EC50 [3]: 10.5 µM (active) | IC50 [1]: 20 µM (active)

O=S1(=O)N=C(N/N=C/C=C/c2ccccc2)c2ccccc21
IC50 (cells): 30.6 µM (active)

CN1CCN(C2=C(Cl)C(=O)N(c3ccc(C(F)(F)F)cc3)C2=O)CC1
IC50 [8]: > 50 µM (inconclusive)

CC1CCCC(C)N1c1nnc(N)s1 (stereo not drawn)
AC50 [7]: 2.31 µM (active)

O=C(NNc1nc2ccccc2s1)c1ccccc1F
CC50 [4]: > 40 µM (active) | AC50 [7]: 14.2 µM (active) | AC50 (Cytochrome P450 1A2): 14.1 µM (inconclusive)

O=S(=O)(Nc1ccc2c(c1)OCO2)c1ccc(F)c(F)c1
AC50 [7]: 5.12 µM (active)

Cc1ncc([N+](=O)[O-])n1CCOC(=O)c1cc(Cl)cc(Cl)c1N
EC50 [10]: > 260 µM (inactive) | IC50 [1]: 6.77 µM (active)

CCCCN(C)/N=N/c1[nH]cnc1C(N)=O
GI50 (P388/ADR): > 100 µM (inactive) | GI50 (SN12K1): 81.7 µM (inactive) | GI50 (P388): 63.8 µM (inactive)

O=[N+]([O-])c1c(O)oc2ccccc2/c1=N\c1ccccc1O
IC50 (cells): 7.4 µM (active)

N#Cc1ccc(-c2ccc(F)cc2)nc1Oc1ccc(Cl)c(Cl)c1
EC50 [2]: 7.18 µM (active) | EC50 [3]: 3.8 µM (active)

CCOc1ccc(CCNc2ccc3nnc(-c4ccccc4)n3n2)cc1OCC
EC50 [2]: 12.7 µM (active) | EC50 [3]: 26.3 µM (active)

C=C(C)CSc1cc(C)c(C#N)c2nc3ccccc3n12
CC50 [4]: 10.1 µM (active)

CCOc1ccc(C(CC(=O)O)CC(=O)O)cc1
IC50 [8]: > 100 µM (not active)

CCCc1cc(C(=O)N2CCCC(Nc3ccc(C)c(C)c3)C2)n(C)n1 (stereo not drawn)
AC50 [7]: 3.84 µM (active)

COc1cc([C@@H]2c3cc4c(c(O)c3C[C@H]3COC(=O)[C@@H]32)OCO4)cc(OC)c1O
GI50 (P388/ADR): 0.02 µM (active) | GI50 (SN12K1): 0.0208 µM (active) | GI50 (P388): 0.0261 µM (active)

COC(=O)c1ccccc1N=C(S)N(Cc1ccc2c(c1)OCO2)Cc1cc2cc(OC)ccc2nc1O
AC50 [11]: 10.4 µM (active)

CC1(C)c2[nH]c3ccccc3c2C[C@@H]2C(=O)N(Cc3ccccc3F)C(=O)N21
CC50 [4]: > 40 µM (active)

CCOC(=O)c1cc(-c2c(Cl)cccc2Cl)no1
IC50 (cells): 23 µM (active)
